Measurements as given in patent US12357711B2, “PSMA binding dual mode radiotracer and therapeutic” (Technische Universität München, priority 2019, dated 2025).

Tested on: SCID mice
Assay: Preclinical dosimetry from biodistribution in mice, extrapolated to 70-kg Standard Adult (OLINDA/EXM 1.0)
Type: in vivo
Details: 1.0 h bladder voiding interval
Procedure: 3-5 mice were injected per timepoint with a mean 25.6±3.6 MBq of 18F-rhPSMA-7 and 28.5±4.8 MBq of 18F-rhPSMA-7.3, respectively. Mice, severe combined immunodeficiency (SCID) were used for the experiments.
Mice were sacrificed at the following timepoints: • ^18F-rhPSMA-7: 10, 20, 40, 60, 120 and 180 minutes after administration. • ^18F-rhPSMA-7.3: 10, 60, 120, 180 and 300 minutes after administration.
Urine, blood, heart, lung, spleen, pancreas, liver, stomach (emptied), small intestine (emptied), large intestine (emptied), kidneys, bladder, testis, fat, muscle (partial, femoral), femur, tail and brain. Urine was collected with a pipette in the CO2 gas chamber. In case of missing urination in the chamber the bladder was aspirated with an insulin syringe. Blood was withdrawn instantly after sacrifice with an insulin syringe from the heart. All other tissues and organs were dissected and transferred directly in plastic containers.
The counting rates of measurement samples were automatically corrected for decay. The radioactivity distribution ratios (unit: percentage of the injected dose (% ID) in the measurement samples were determined using the equation below. The sum of the counting rates from all measurement samples obtained from one mouse was designated as the counting rate for administrated radioactivity.
The radioactivity distribution ratio per unit weight of the measurement sample (unit: % ID/g) excluding urine and feces samples was determined by using the equation below. The weight of the measurement sample was determined by subtraction of the empty measurement container from the container including the sample.
For consistency of statistical calculations for each radiotracer the same number of time-points for ^18F-rhPSMA-7 and ^18F-rhPSMA-7.3 was used. Therefore, for ^18F-rhPSMA-7 the 10 min and 20 min time points were combined creating a 15 min endpoint.
The time-integral of activity for the accumulation in the significant source organs (AUCs) were generated both with numerical integration and physical decay according to J Juan et al., Journal of Pharmaceutical Sciences, 1993, 82:762-763.
In brief, to calculate a human dosimetry from the biodistribution in the mice, an extrapolation was necessary to account for the differences between the animals and humans. Normal-organ radiation doses were estimated for the 70-kg Standard Adult anatomic model using time-depending organ activity concentrations (in percent of the injected dose per gram, % ID/g) and total-body activities measured in the biodistribution studies in mice.
Tissue activity concentrations in mice were converted to tissue fractional activities in the 70-kg Standard Adult using the relative fractional organ masses in the Standard Adult and the “standard” 25-gramm mouse. Time-dependent total-body activity was fit to an exponential function and the difference between the injected activity and the total-body activity was assumed to be excreted to the urine because activity concentrations in the liver and GI tracer were low at all time points studied.
Organ residence time was calculated by numerical integration using the trapezoidal rule and the rest-of-body ^18F residence times was calculated as the difference between the total-body residence time and the sum of the organ and urine residence times. The bladder contents residence time was estimated using the dynamic voiding model in the OLINDA/EXM 1.0 dosimetry software. Finally, the Standard Adult mean organ dose equivalents (in mSv/MBq) and effective dose (also in mSv/MBq) were then calculated using OLIN DA/EXM 1.0.
Final calculation of radiation absorbed dose and dosimetry from biodistribution in mice: The tissues or organs in which a significant accumulation of radioactivity occurs (i.e., source organ) were kidney, spleen, lung, liver and heart. With respect to activity accumulation and clearance, a rapid clearance from blood and clearance to urine but relatively slow build-up in kidney was found.

CC(C)(C)[Si](F)(c1ccc(C(=O)NC[C@@H](NC(=O)CC[C@@H](C(=O)O)N2CCN(CC(=O)[O-])CCN(CC(=O)[O-])CCN(CC(=O)[O-])CC2)C(=O)N[C@H](CCCCNC(=O)CCC(=O)NCCC[C@@H](NC(=O)CC[C@H](NC(=O)N[C@@H](CCC(=O)O)C(=O)O)C(=O)O)C(=O)O)C(=O)O)cc1)C(C)(C)C.[Ga+3] [rhPSMA7.3, [^19F][^natGa]D-Dap-S-DOTAGA-rhPSMA7]
Adrenals ED Cont.: 5.46E−05 mSv/MBq
Adrenals EDE Cont.: 0.00E000 mSv/MBq
Adrenals dose Alpha: 0.00E000 mSv/MBq
Adrenals dose Beta: 3.12E−03 mSv/MBq
Adrenals dose Photon: 7.79E−03 mSv/MBq
Adrenals dose Total: 1.09E−02 mSv/MBq
Brain ED Cont.: 3.59E−05 mSv/MBq
Brain EDE Cont.: 0.00E000 mSv/MBq
Brain dose Alpha: 0.00E000 mSv/MBq
Brain dose Beta: 3.12E−03 mSv/MBq
Brain dose Photon: 4.06E−03 mSv/MBq
Brain dose Total: 7.18E−03 mSv/MBq
Breasts ED Cont.: 3.32E−04 mSv/MBq
Breasts EDE Cont.: 9.97E−04 mSv/MBq
Breasts dose Alpha: 0.00E000 mSv/MBq
Breasts dose Beta: 3.12E−03 mSv/MBq
Breasts dose Photon: 3.53E−03 mSv/MBq
Breasts dose Total: 6.65E−03 mSv/MBq
Gallbladder Wall ED Cont.: 0.00E000 mSv/MBq
Gallbladder Wall EDE Cont.: 0.00E000 mSv/MBq
Gallbladder Wall dose Alpha: 0.00E000 mSv/MBq
Gallbladder Wall dose Beta: 3.12E−03 mSv/MBq
Gallbladder Wall dose Photon: 7.11E−03 mSv/MBq
Gallbladder Wall dose Total: 1.02E−02 mSv/MBq
Heart Wall ED Cont.: 0.00E000 mSv/MBq
Heart Wall EDE Cont.: 0.00E000 mSv/MBq
Heart Wall dose Alpha: 0.00E000 mSv/MBq
Heart Wall dose Beta: 1.32E−03 mSv/MBq
Heart Wall dose Photon: 5.36E−03 mSv/MBq
Heart Wall dose Total: 6.68E−03 mSv/MBq
Kidneys ED Cont.: 3.58E−04 mSv/MBq
Kidneys EDE Cont.: 4.29E−03 mSv/MBq
Kidneys dose Alpha: 0.00E000 mSv/MBq
Kidneys dose Beta: 5.11E−02 mSv/MBq
Kidneys dose Photon: 2.04E−02 mSv/MBq
Kidneys dose Total: 7.16E−02 mSv/MBq
LLI Wall ED Cont.: 1.39E−03 mSv/MBq
LLI Wall EDE Cont.: 6.94E−04 mSv/MBq
LLI Wall dose Alpha: 0.00E000 mSv/MBq
LLI Wall dose Beta: 3.12E−03 mSv/MBq
LLI Wall dose Photon: 8.45E−03 mSv/MBq
LLI Wall dose Total: 1.16E−02 mSv/MBq
Liver ED Cont.: 2.92E−04 mSv/MBq
Liver EDE Cont.: 0.00E000 mSv/MBq
Liver dose Alpha: 0.00E000 mSv/MBq
Liver dose Beta: 9.70E−04 mSv/MBq
Liver dose Photon: 4.87E−03 mSv/MBq
Liver dose Total: 5.84E−03 mSv/MBq
Lungs ED Cont.: 7.90E−04 mSv/MBq
Lungs EDE Cont.: 7.90E−04 mSv/MBq
Lungs dose Alpha: 0.00E000 mSv/MBq
Lungs dose Beta: 1.95E−03 mSv/MBq
Lungs dose Photon: 4.63E−03 mSv/MBq
Lungs dose Total: 6.58E−03 mSv/MBq
Muscle ED Cont.: 4.30E−05 mSv/MBq
Muscle EDE Cont.: 0.00E000 mSv/MBq
Muscle dose Alpha: 0.00E000 mSv/MBq
Muscle dose Beta: 3.12E−03 mSv/MBq
Muscle dose Photon: 5.47E−03 mSv/MBq
Muscle dose Total: 8.59E−03 mSv/MBq
Osteogenic Cells ED Cont.: 1.28E−04 mSv/MBq
Osteogenic Cells EDE Cont.: 3.84E−04 mSv/MBq
Osteogenic Cells dose Alpha: 0.00E000 mSv/MBq
Osteogenic Cells dose Beta: 6.70E−03 mSv/MBq
Osteogenic Cells dose Photon: 6.11E−03 mSv/MBq
Osteogenic Cells dose Total: 1.28E−02 mSv/MBq
Ovaries ED Cont.: 2.35E−03 mSv/MBq
Ovaries EDE Cont.: 2.93E−03 mSv/MBq
Ovaries dose Alpha: 0.00E000 mSv/MBq
Ovaries dose Beta: 3.12E−03 mSv/MBq
Ovaries dose Photon: 8.61E−03 mSv/MBq
Ovaries dose Total: 1.17E−02 mSv/MBq
Pancreas ED Cont.: 5.62E−05 mSv/MBq
Pancreas EDE Cont.: 0.00E000 mSv/MBq
Pancreas dose Alpha: 0.00E000 mSv/MBq
